Measured values reported in the NIST ThermoML archive (doi:10.1021/je0302250).
± gives the expanded uncertainty stated by the source.

Experiments:
[1] = 101.3 kPa, Liquid, Capillary tube (Ostwald / Ubbelohde) method
[2] = xn = mol fraction of the nth substance listed; conditions: 101.3 kPa, Liquid, Capillary tube (Ostwald / Ubbelohde) method

CN(CCO)CCO [N-methyldiethanolamine]
[1]
Conditions | viscosity [mPa·s]
313.15 K | 34.62 ± 0.41
333.15 K | 14.38 ± 0.17
353.15 K | 7.082 ± 0.086
363.15 K | 5.277 ± 0.064

CN(CCO)CCO [N-methyldiethanolamine] + O
viscosity [mPa·s], [2]
Conditions | x1 = 0.06 | x1 = 0.09 | x1 = 0.129 | x1 = 0.257 | x1 = 0.372 | x1 = 0.583 | x1 = 0.743 | x1 = 1
313.15 K | 1.94 ± 0.023 | 3.115 ± 0.039 | 5.108 ± 0.069 | 15.18 ± 0.18 | 24.78 ± 0.28 | 34.79 ± 0.39 | 35.92 ± 0.41 | 34.62 ± 0.41
333.15 K | 1.202 ± 0.014 | 1.709 ± 0.021 | 2.703 ± 0.034 | 6.7 ± 0.081 | 10.24 ± 0.12 | 13.74 ± 0.16 | 14.49 ± 0.17 | 14.38 ± 0.17
353.15 K | 0.813 ± 0.01 | 1.127 ± 0.014 | 1.63 ± 0.02 | 3.472 ± 0.042 | 4.873 ± 0.057 | 6.569 ± 0.077 | 7.084 ± 0.083 | 7.082 ± 0.086
363.15 K | 0.687 ± 0.008 | 0.871 ± 0.01 | 1.205 ± 0.015 | 2.606 ± 0.031 | 3.611 ± 0.042 | 4.749 ± 0.056 | 5.278 ± 0.062 | 5.277 ± 0.064

O [water] + CN(CCO)CCO
[2], x2 = 0
Conditions | viscosity [mPa·s]
313.15 K | 0.656 ± 0.008
333.15 K | 0.476 ± 0.006
353.15 K | 0.358 ± 0.004
363.15 K | 0.305 ± 0.004
